Measured values from patent US20090171592A1, “Homology Models of Mammalian Zinc Transporters and Methods of Using Same” (Brookhaven Science Associates, LLC, priority 2007, published 2009).
Where two headings read alike, the source gives them in different places.

What was measured:
YiiP [1] = target: T1, YiiP (Escherichia coli, UniProt P69380); settings: cited from earlier work
YiiP [2] = target: T1, YiiP; settings: Kd1 145 μM vs Kd2 0.24 μM
Text: Anomalous difference Fourier maps of native crystals were computed using experimental phases and diffraction data collected at the zinc edge.

YiiP [3] = target: T1, YiiP; settings: cited from earlier work; remark: listed apart in the source

T1 sequence (P69380 whole entry): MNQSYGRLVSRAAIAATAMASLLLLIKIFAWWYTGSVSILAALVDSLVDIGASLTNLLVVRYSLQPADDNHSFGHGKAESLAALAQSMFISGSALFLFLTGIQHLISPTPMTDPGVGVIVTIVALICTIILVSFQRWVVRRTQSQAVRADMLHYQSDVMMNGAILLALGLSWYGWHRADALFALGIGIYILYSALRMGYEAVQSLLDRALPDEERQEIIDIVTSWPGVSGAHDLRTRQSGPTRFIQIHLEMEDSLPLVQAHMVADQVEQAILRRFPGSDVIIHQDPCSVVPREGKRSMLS

| Compound | binding affinities, metal binding mapped to D49 and D157 in the transmembrane domain (YiiP [1]) | affinity difference between site-Z1 and Z2 (YiiP [2]) | turnover rate of Zn2+ transport across the membrane (YiiP [3]; 30-ms timescale) | Km (YiiP [3]; read-out: Michaelis-Menten constant (Km) of Zn2+ transport by YiiP) | Zn2+ stoichiometry units per YiiP protomer (YiiP [1]; EDTA pre-treated YiiP) | Kd (YiiP [1]; read-out: dissociation constant (Kd, Kd1), low affinity component / site-Z2, low-affinity binding component, intracellular-facing site-Z2) | Kd (YiiP [1]; read-out: dissociation constant (Kd, Kd2), high affinity sites / site-Z1, two high affinity Zn2+-binding sites, overall Kd, attributed to site-Z1) |
| --- | --- | --- | --- | --- | --- | --- | --- |
| [Cd+2] [Cd^2+] | submicromolar range | – | – | – | – | – | – |
| [Zn+2] [Zn^2+] | submicromolar range | 604 fold | 34 s^− | 310 µM | 2.6 | 145 µM | 0.24 µM |
